In ChEMBL document CHEMBL1129620 (J Med Chem, 1996):

Assays:
Translocator protein [1] = biological target: T1, Translocator protein (Rattus norvegicus, UniProt P16257); assay: Inhibition of binding of [3H]-PK 11195 to peripheral-type benzodiazepine receptor (PBR) from rat cortex homogenate
Translocator protein [2] = biological target: T1, Translocator protein; assay: Binding affinity against peripheral-type benzodiazepine receptor (PBR) from rat cortex homogenate using [3H]-PK 11195 as radioligand
Translocator protein [3] = biological target: T1, Translocator protein; assay: Displacement [3H]-PK 11195 from rat adrenal peripheral-type benzodiazepine receptor (PBR)
Translocator protein [4] = biological target: T1, Translocator protein; assay: Displacement of [3H]-Ro- 5-4864 from rat adrenal peripheral-type benzodiazepine receptor (PBR)

T1 sequence (P16257 whole entry, looked up): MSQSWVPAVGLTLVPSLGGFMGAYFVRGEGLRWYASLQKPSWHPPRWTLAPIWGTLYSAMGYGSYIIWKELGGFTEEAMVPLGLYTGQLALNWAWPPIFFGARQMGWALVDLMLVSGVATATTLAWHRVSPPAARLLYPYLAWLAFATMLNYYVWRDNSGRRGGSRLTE

Row | Compound | IC50 (Translocator protein [1]) [nM] | Ki (Translocator protein [2]) [nM] | Ki (Translocator protein [3]) [nM] | Ki (Translocator protein [4]) [nM]
1 | CCC1=C(OC(C)=O)c2cccn2-c2ccccc2O1 | > 5000 | – | – | –
2 | CC(=O)OC1=C(c2ccccc2)Oc2ccccc2-n2cccc21 | 12.1 | 4.7 | – | –
3 | CC(=O)OC1=C(c2ccccc2)Sc2cc(C)ccc2-n2cccc21 | – | 44 | – | –
4 | CC(=O)OC1=C(c2ccc3ccccc3c2)Oc2ccccc2-n2cccc21 | 76.6 | 30 | – | –
5 | CC(=O)OC1=C(c2ccc(C)cc2)Oc2ccccc2-n2cccc21 | 2.3 | 0.91 | 2.8 | 1.7
6 | COC(=O)C1=C(c2ccccc2)Oc2ccccc2-n2cccc21 | 148 | 57.8 | – | –
7 | CCN(CC)C(=O)OC1=C(c2ccc(C)cc2)Oc2ccccc2-n2cccc21 | 0.94 | 0.36 | 1.9 | 1.9
8 | CC(=O)OC1=C(c2ccccc2)Sc2ccccc2-n2cccc21 | – | 7.6 | – | –
9 | CCN(CC)C(=O)OC1=C(c2ccccc2)Oc2ccccc2-n2cccc21 | 0.68 | 0.26 | – | –
10 | CN(C)C(=O)OC1=C(c2ccc(N=[N+]=[N-])cc2)Oc2ccccc2-n2cccc21 | 3.6 | 1.4 | 4.8 | 3.6
11 | CN(C)C(=O)OC1=C(c2ccccc2)Oc2c(Cl)cccc2-n2cccc21 | 1.3 | 0.51 | – | –
12 | CN(C)C(=O)OC1=C(c2ccccc2)Sc2ccccc2-n2cccc21 | – | 3.5 | – | –
13 | CC(=O)OCC1=C(c2ccccc2)Oc2ccccc2-n2cccc21 | 1930 | 754 | – | –
14 | CC(=O)OC1=C(c2ccccc2)Sc2ccc(C)cc2-n2cccc21 | – | 263 | – | –
15 | CCC1=C(OC(=O)N(C)C)c2cccn2-c2ccccc2O1 | 589 | 230 | – | –
16 | CC(=O)C1=C(c2ccccc2)Oc2ccccc2-n2cccc21 | 64.6 | 25.2 | – | –
17 | COc1ccc(C2=C(OC(=O)c3cccnc3)c3cccn3-c3ccccc3S2)cc1 | > 100000 | – | – | –
18 | CC(=O)OC1=C(c2ccccc2)Oc2cc3ccccc3cc2-n2cccc21 | 278 | 108 | – | –
19 | CC(=O)OC1=C(c2ccc(Cl)cc2)Sc2ccccc2-n2cccc21 | – | 11.7 | – | –
20 | O=C(OC1=C(c2ccccc2)Oc2ccccc2-n2cccc21)C1CCCCC1 | 81.9 | 32 | – | –
21 | CCN(CC)C(=S)OC1=C(c2ccccc2)Oc2ccccc2-n2cccc21 | 3.8 | 1.5 | – | –
22 | CN(C)C(=O)OC1=C(c2ccccc2)Sc2c(Cl)cccc2-n2cccc21 | – | 1.8 | 2.5 | 2.6
